1 compound from patent US20230340127A1, “METHODS AND COMPOSITIONS FOR CANCER TREATMENT BY INHIBITION OF FBXO44” (Sanford Burnham Prebys Medical Discovery Institute, priority 2022, published 2023) can be followed below.

The test system of the assay is MDA-MB-231-luc-derived mammary tumors. In words: MDA-MB-231-luc orthotopic mammary tumors in immunodeficient mice treated with F5446. Type of assay: in vivo, mouse. The method, then: Animal studies: mice were maintained under pathogen free conditions in 14 hrs light/10 hrs dark cycle with ad libitum access to food and water. All animal handling and procedures used were performed in accordance with protocols approved by the Institutional Animal Care and Use Committee of SBP or UCSD. For intracardiac injections, 10^5 MDA-MB-231-luc cells transduced with lentivirus expressing non-targeting or FBXO44 shRNAs were resuspended in 100 μL DPBS and injected into the left ventricle of 6-week old female athymic nude mice (Envigo no. 069) anesthetized with isoflurane. Metastatic seeding was monitored weekly by intraperitoneal (i.p.) injection of 100 μL of 30 mg/mL D-Luciferin (Xenogen no.)CR-1001) 10 min prior to imaging using the IVIS Spectrum Xenogen Imaging System (Caliper Life Sciences). Images were analyzed using Living Image 3.0 software (Caliper Life Sciences). For ex vivo imaging of tissues, mice were injected with D-Luciferin prior to euthanasia, tissues harvested and placed in 24-well tissue culture plates containing 1 mL of 0.3 mg/mL D-Luciferin and imaged. Organs/tissues were fixed in 10% formalin and subjected to hematoxylin and eosin staining. For orthotopic injections of NSG mice, 3×10^6 MDA-MB-231-luc cells were suspended in 100 μL of PBS and injected into the mammary fat pads of 4- to 6-week-old female mice. For F5446 drug treatments, mice were randomly divided into 3 groups at day 12. The mice were administered vehicle (10% Cremophor EL in PBS) or F5446 at doses of 10 and 20 mg/kg body weight via i.p. injection on days 12, 14, 17, 19, 21 and 24 post-inoculation of cells. Tumor size was measured every 4-5 days (long diameter and short diameter) with a caliper and tumor volume calculated as 0.5×length×width×width. Mice were imaged weekly to monitor tumor growth and metastasis in vivo using an IVIS Spectrum Xenogen Imaging System (Caliper Life Sciences). All mice were euthanized at day 25 except 3 mice were taken out from each group for tumor IHC staining of γH2AX and cleaved Caspase 3 and quantitative RT-PCR analysis at day 21. […]

In the case of `COC(=O)c1cc2c(n1S(=O)(=O)c1ccc(Cl)cc1)C(=O)C(=O)c1[nH]cc(C(=O)OCc3ccccc3)c1-2` [F5446], the “γH2AX and cleaved Caspase 3 in tumors” value (IHC of F5446-treated tumors (FIG. 12K)) is given as “dose-dependent increase”. Further, the mammary tumor growth result (immunocompromised mice, 10 and 20 mg/kg i.p. (FIGS. 12H-12J)) is “inhibited mammary tumor growth in immunocompromised mice in a dose-dependent manner”. In addition, the “expression of REs, IFN α/β, and ISGs in tumors” value (qRT-PCR of F5446-treated tumors (FIG. 12L)) is reported as “upregulated”.
